Measured values taken from paper PMC7845594, “Novel Immune Modulators Enhance Caenorhabditis elegans Resistance to Multiple Pathogens” (mSphere, 2021).

Legend:
[1] = tested on: C. elegans host defense pathway genes; test: nanoString expression of 115 immune- and stress-responsive genes; details: 100 μM LK molecules, 16 h
Protocol: The ratio of MIC to EC was determined for each of the 69 compounds.
Analysis of the expression of 115 immune- and stress-responsive genes using nanoString technology. Download Table S1, XLSX file, 0.02 MB.
For nanoString-based (nanoString Technologies, Seattle, WA) experiments, 2,000 wild-type, young adult worms were exposed to 100 μM LK molecules or DMSO control in S Basal medium in 6-well plates for 16 h. RNA purification and gene expression analysis were performed according to nanoString guidelines. Two biological replicates were tested for each condition.

SKN-1/Nrf pathway = test: gst-4p::GFP reporter; type: in vivo, Caenorhabditis elegans; details: 100 μM in 1% DMSO, no pathogen
Excerpt: To test activation of these pathways, worms carrying GFP-based reporters for the SKN-1/Nrf, PMK-1/p38 MAPK, and DAF-16/FOXO pathways (gst-4p::GFP, irg-5p::GFP, and DAF-16::GFP, respectively) were exposed to each compound in S Basal medium in the absence of the pathogen.
FIG 4 A subset of LK molecules activates reporters for the SKN-1/Nrf2 or PMK-1/p38 MAPK pathways. […] Also present are DMSO and ethanol negative controls for LK compounds and juglone, respectively. The fluorescence intensity was normalized to that of DMSO. (B) Worms carrying an irg-5p::GFP reporter for PMK-1/p38 MAPK activity were incubated at 25, 50, or 100 μM in 1% DMSO. Positive and negative controls consisted of 100 μM RPW-24 in 1% DMSO and 1% DMSO alone. Fluorescence was measured at 24 h. For both panels, ∼50 worms were used per well, and at least three wells were used per condition for each biological replicate. Mean values from at least three biological replicates are shown. *, P < 0.05; **, P < 0.01; ***, P < 0.001 compared to the solvent control. P values were calculated using Student’s t test. Error bars represent the standard error of the mean.
Worms were washed three times prior to incubation with compounds or DMSO control and diluted in S Basal medium supplemented with E. coli OP50 (OD600 = 0.08) as a food source. The fluorescence fold increase for gst-4p::GPF was taken as the fluorescence of each well and was normalized to the well’s fluorescence at 0 h. irg-5p::GFP, hsp-16.1p::GFP, rpt-6p::GFP, and hsp-4::GFP fluorescence was quantified as the fluorescence/worm area. For gst-4p::GFP, 100 µM ethanol-solubilized juglone was used as a positive control. Ethanol was also tested at 1% (vol/vol) as a control. For irg-5p::GFP, RPW-24 (100 µM) was used as a positive control. For quantification of nuclear localization of GFP fusion reporters, worms were scored as either localization positive or localization negative. DAF-16::GFP worms were scored as localization positive if >5 nuclei within the worm had localized GFP. All worms were imaged at the L4-young adult stage. […]

[2] = tested on: P. aeruginosa strain PA14; test: MIC assay (bacterial growth, no worms); type: cell-based, Pseudomonas aeruginosa
Protocol: For the first round of characterization, 69 novel small molecules previously selected on the basis of their ability to improve C. elegans survival during exposure to P. aeruginosa in liquid ([14]) were tested for the ability to interfere with bacterial growth. MICs were determined for each compound by growing P. aeruginosa strain PA14 in static culture in 384-well plates with serial 2-fold dilutions of compounds. No worms were used in these assays. Next, effective rescue concentrations (EC; defined as the minimum concentration that results in statistically significant survival, compared to dimethyl sulfoxide [DMSO]) ([15], [18]) were determined for each compound using the standard P. aeruginosa liquid killing assay. Sterile glp-4(bn2) worms were used in all liquid-based assays to limit artifacts (i.e., unlaid eggs will hatch and cause matricide).
Plates were allowed to grow for 24 h at 37°C without shaking. Growth was scored visually on the basis of turbidity. At least three biological replicates were performed.

COC(=O)/C=C/C(=O)Nc1ccccc1 [LK32]
B0024.4 expression, induction [1]: 2.44 fold
C02B4.2 nhr-17 expression, induction [1]: 5.68 fold
C06B3.7 expression, induction [1]: 4.23 fold
C07G3.2 irg-1 expression, induction [1]: 2.20 fold
C12C8.1 hsp-70 expression, induction [1]: 3.77 fold
C15F1.7 sod-1 expression, induction [1]: 4.46 fold
C29F7.2 expression, induction [1]: 2.80 fold
C31A11.5 oac-6 expression, induction [1]: 4.01 fold
C32D5.12 expression, induction [1]: 3.70 fold
C32H11.1 expression, induction [1]: 1.40 fold
C32H11.3 expression, induction [1]: 2.32 fold
C34G6.4 pgp-2 expression, induction [1]: 1.90 fold
C37C3.10 expression, induction [1]: 4.08 fold
C37H5.8 hsp-6 expression, induction [1]: 3.96 fold
C49G7.5 irg-2 expression, induction [1]: 4.83 fold
F08F8.5 numr-1 expression, induction [1]: 8.48 fold
F08H9.4 expression, induction [1]: 1.80 fold
F14F9.3 expression, induction [1]: 4.80 fold
F22B5.4 expression, induction [1]: 3.08 fold
F22H10.2 expression, induction [1]: 3.76 fold
F26A3.4 expression, induction [1]: 4.23 fold
F35E8.11 cdr-1 expression, induction [1]: 3.13 fold
F35G2.4 phy-2 expression, induction [1]: 4.53 fold
F37B12.2 gcs-1 expression, induction [1]: 7.02 fold
F43E2.8 hsp-4 expression, induction [1]: 2.75 fold
F44E5.5 expression, induction [1]: 3.34 fold
F49F1.6 expression, induction [1]: 2.28 fold
F49F1.7 expression, induction [1]: 2.35 fold
F49H6.13 expression, induction [1]: 6.69 fold
F54B8.4 expression, induction [1]: 2.74 fold
F55G11.2 expression, induction [1]: 3.21 fold
F59A7.1 clec-206 expression, induction [1]: 3.26 fold
F59B10.4 expression, induction [1]: 3.51 fold
H12D21.1 nspa-1 expression, induction [1]: 52.37 fold
H23N18.1 ugt-13 expression, induction [1]: 8.50 fold
H23N18.3 ugt-8 expression, induction [1]: 18.61 fold
K05B2.4 expression, induction [1]: 1.82 fold
K08F4.7 gst-4 expression, induction [1]: 18.20 fold
K09A9.1 nipi-3 expression, induction [1]: 4.75 fold
K10D11.2 expression, induction [1]: 2.89 fold
K10G4.3 expression, induction [1]: 2.75 fold
R03D7.6 gst-5 expression, induction [1]: 46.52 fold
R08H2.1 dhs-23 expression, induction [1]: 2.72 fold
R10E8.3 expression, induction [1]: 7.07 fold
T19D12.3 expression, induction [1]: 9.28 fold
T19H12.1 ugt-9 expression, induction [1]: 14.98 fold
T21E8.1 pgp-6 expression, induction [1]: 2.05 fold
T22B7.3 expression, induction [1]: 6.13 fold
T24C4.4 expression, induction [1]: 3.75 fold
T24E12.5 expression, induction [1]: 2.28 fold
T27E4.3 hsp-16.48 expression, induction [1]: 5.22 fold
T27E4.8 hsp-16.1 expression, induction [1]: 4.29 fold
T27F6.8 expression, induction [1]: 5.12 fold
T28C12.4 expression, induction [1]: 9.85 fold
W02D9.10 expression, induction [1]: 4.35 fold
Y22D7AL.5 hsp-60 expression, induction [1]: 4.03 fold
Y38E10A.15 nspe-7 expression, induction [1]: 2.18 fold
Y46H3A.2 hsp-16.41 expression, induction [1]: 4.09 fold
Y46H3A.3 hsp-16.2 expression, induction [1]: 4.04 fold
Y56A3A.33 expression, induction [1]: 4.81 fold
Y58A7A.5 expression, induction [1]: 8.58 fold
ZC376.7 atfs-1 expression, induction [1]: 5.61 fold
ZC443.6 ugt-16 expression, induction [1]: 3.20 fold
ZK697.6 gst-21 expression, induction [1]: 2.57 fold
gst-4p::GFP induction (SKN-1/Nrf activation) (SKN-1/Nrf pathway): induced gst-4p::GFP
MIC ([2]; Pseudomonas aeruginosa, P. aeruginosa PA14, LB media, static culture, no worms, read-out: MIC): > 975 µM
MIC / EC ([2]; ratio of MIC to EC, P. aeruginosa PA14): > 30.5
